Results on 22 compounds are retold here after ChEMBL document CHEMBL5365392, “Inhibitors of ABCG2-mediated multidrug resistance: Lead generation through computer-aided drug design” (Eur J Med Chem, 2023).

In data set [1] the target is T1, Broad substrate specificity ATP-binding cassette transporter ABCG2 (Homo sapiens, UniProt Q9UNQ0).
T1 sequence (Q9UNQ0 whole entry): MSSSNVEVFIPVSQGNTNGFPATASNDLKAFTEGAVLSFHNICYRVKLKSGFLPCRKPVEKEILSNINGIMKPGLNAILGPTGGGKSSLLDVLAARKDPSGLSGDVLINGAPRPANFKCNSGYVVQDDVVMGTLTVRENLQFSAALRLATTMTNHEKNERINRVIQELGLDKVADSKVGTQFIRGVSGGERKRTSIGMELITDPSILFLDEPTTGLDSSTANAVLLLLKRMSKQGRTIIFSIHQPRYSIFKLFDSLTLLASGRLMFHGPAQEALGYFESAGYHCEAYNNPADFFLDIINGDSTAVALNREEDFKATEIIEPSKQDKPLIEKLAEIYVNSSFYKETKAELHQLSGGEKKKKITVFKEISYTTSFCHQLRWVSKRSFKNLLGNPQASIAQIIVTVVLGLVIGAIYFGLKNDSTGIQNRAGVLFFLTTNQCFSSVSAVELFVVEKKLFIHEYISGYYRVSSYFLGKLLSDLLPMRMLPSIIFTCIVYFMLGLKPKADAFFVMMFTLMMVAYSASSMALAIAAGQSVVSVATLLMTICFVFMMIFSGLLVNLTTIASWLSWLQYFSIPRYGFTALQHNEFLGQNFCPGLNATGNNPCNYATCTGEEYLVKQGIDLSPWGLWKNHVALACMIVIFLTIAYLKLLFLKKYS
Description: Inhibition of ABCG2 (unknown origin)-mediated mitoxantrone efflux.

In the next data set the target is T2, ABCG2 (Homo sapiens, UniProt Q9UNQ0).
T2 sequence (Q9UNQ0 whole entry): T1 sequence (Q9UNQ0 whole entry)
Briefly: (§1) Inhibition of ABCG2 (unknown origin)-mediated mitoxantrone efflux at 5 uM relative to control. Conditions: probe mitoxantrone.

The target of data set [2] is T1, Broad substrate specificity ATP-binding cassette transporter ABCG2. The data set is described as §1. The settings on record: 5 µM.
The target is the same in data set [3]. Description: Inhibition of ABCG2 (unknown origin) expressed in HEK293 cells assessed as reduction in mitoxantrone accumulation incubated for 30 mins by flow cytometric method. The class given is cell-based.

Several values for one entry are separate records, joined by “and”; a condition that tells them apart may be missing. Equal values may be shown once.

Regarding `O=C1CCCc2c1c1c(n2CCc2ccccc2)-c2ccccc2C1=O`, the EC50 in data set [1] was 0.43 µM. Further, the inhibition at 5 µM at ABCG2 was found to be 100%. The compound `O=C1CCCc2c1c1c(n2CCCc2ccccc2)-c2ccccc2C1=O` returned an EC50 in data set [1] of 0.79 µM. Also, the inhibition at 5 µM against ABCG2 stood at 83%. The compound `O=C1CC(c2ccccc2)Cc2c1c1c(n2Cc2ccccc2)-c2ccccc2C1=O` (stereo not drawn) displayed a 50% effective concentration (EC50) in data set [1] of 0.96 µM. In addition, the inhibition at 5 µM on ABCG2 is 68%. With `COc1ccc2[nH]cc(CCNC(=O)c3cc(=O)c4c(OCc5ccc(Br)cc5)cccc4o3)c2c1`, at ABCG2, the inhibition at 5 µM came out at 98%.

For the compound `CN(CCc1cn(C)c2ccccc12)C(=O)c1cc(=O)c2c(OCc3ccc(Br)cc3)cccc2o1`, the inhibition at 5 µM at ABCG2 was found to be 88%.

In the case of `COc1ccc2c(CCNC(=O)c3cc(=O)c4c(OCc5ccc(Br)cc5)cccc4o3)c[nH]c2c1`, the inhibition at 5 µM against ABCG2 turned out to be 97%. Same read-out and setting: the figure for `Cn1cc(CCNC(=O)c2cc(=O)c3c(OCc4ccc(Br)cc4)cccc3o2)c2ccccc21` is 85%; for `CN(CCc1c[nH]c2ccccc12)C(=O)c1cc(=O)c2c(OCc3ccc(Br)cc3)cccc2o1` it is 105%. Same read-out and setting: the same measure for `COc1ccc2[nH]cc(CCN(C)C(=O)c3cc(=O)c4c(OCc5ccc(Br)cc5)cccc4o3)c2c1`: 101%. With `O=C(NCc1cn(CCc2c[nH]c3ccccc23)nn1)c1cc(=O)c2c(OCc3ccc(Br)cc3)cccc2o1`, the inhibition at 5 µM against ABCG2 was 87%.

`COc1ccc2[nH]cc(CCN(C)Cc3cc(=O)c4c(OCc5ccc(Br)cc5)cccc4o3)c2c1` had a concentration giving a half-maximal response (EC50) in data set [1] of 1.8 µM. In addition, the “inhibition (INH)” value in data set [2] was 46% and 75%. As to `CC1CC(=O)c2c3c(n(CCc4ccccc4)c2C1)-c1ccccc1C3=O` (stereo not drawn), the EC50 in data set [1] stood at 0.23 µM. Moreover, the inhibition at 5 µM at ABCG2 worked out at 100%. `O=C1CC(c2ccccc2)Cc2c1c1c(n2CCc2ccccc2)-c2ccccc2C1=O` (stereo not drawn) returned an EC50 in data set [1] of 0.49 µM. In addition, at ABCG2, the inhibition at 5 µM was found to be 83%. The matching figures for `COc1cccc(CCn2c3c(c4c2-c2ccccc2C4=O)C(=O)CCC3)c1`: 0.31 µM and 78%. `CC(C)n1c2c(c3c1-c1ccccc1C3=O)C(=O)C(Cc1ccccc1)(Cc1ccccc1)CC2` returned an EC50 in data set [1] of 0.61 µM. In addition, the inhibition at 5 µM at ABCG2 is 90%.

Compound `O=c1cc(-c2ccccc2)c(=O)c2c1c1c(=O)c3ccccc3c1n2CCc1ccccc1` registered an EC50 in data set [1] of 0.43 µM. In addition, the inhibition at 5 µM on ABCG2 is 128%. Regarding `C=CCOc1ccc(CNCCc2c[nH]c3ccccc23)cc1OCC`, the EC50 in data set [3] stood at 0.13 µM. As for `O=c1cc(-c2ccccc2)c(=O)c2c1c1c(=O)c3ccccc3c1n2Cc1ccccc1`, at ABCG2, the inhibition at 5 µM was found to be 41%.

In the case of `Cc1cc(=O)c2c3c(=O)c4ccccc4c3n(CCc3ccccc3)c2c1=O`, in data set [1], the EC50 was 0.84 µM. The inhibition at 5 µM on ABCG2 was 99%. For `O=c1ccc(=O)c2c1c1c(=O)c3ccccc3c1n2CCCc1ccccc1`, the inhibition at 5 µM against ABCG2 came to 33%.

Turning to `O=c1ccc(=O)c2c1c1c(=O)c3ccccc3c1n2CCc1ccccc1`, the inhibition at 5 µM against ABCG2 was found to be 18%. Compound `COc1ccc2c3c([nH]c2c1)[C@H](C=C(C)C)N1C(=O)[C@@H]2CCCN2C(=O)[C@@H]1C3` [FUMITREMORGIN] gave an EC50 in data set [1] of 2 µM. In addition, the inhibition at 5 µM against ABCG2 was found to be 100%.
